Key:
[1] = test system: Jurkat HIV-luciferase clones; experiment: Jurkat latency reversal assay; type: cell-based; conditions: Homo sapiens, 48 h; Jurkat latency reversal assay potency; read-out: Jurkat pEC50 (converted)
In short: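 Pooled Jurkat clones C16, 115 and N6, each carrying one or two integrated HIV-luciferase proviruses and kept in 500 nM EFV, were exposed to 3-fold, 14-point compound titrations in duplicate (10 μM top, 0.5% DMSO) for 48 h at 37° C. Luciferase luminescence was fitted by four-parameter logistic regression for EC50 and maximal percent activation versus vehicle.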

[2] = target: cIAP1-BIR3 (Homo sapiens (Human), UniProt Q13490); experiment: BIR binding assay (FRET competition), cIAP1 BIR3; conditions: for cIAP1 BIR3 vs BIR2 separation window: fold separation (FS) for cIAP1
In short: (§1)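 615/665 nm FRET ratio. Compound, His-domain and 200 nM AF647-SMAC peptide incubated 60 min, then 2 nM Eu-W1024 for 30 min. Domains: cIAP1-BIR3 50 nM; XIAP-BIR3 100 nM; cIAP1-BIR2, cIAP2-BIR2 325 nM each. 15-pt 3-fold series; variable-slope IC50.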

[3] = target: cIAP1-BIR2 (Homo sapiens (Human), UniProt Q13490); experiment: BIR binding assay (FRET competition), cIAP1 BIR2
In short: as §1

[4] = target: cIAP2-BIR3 (Homo sapiens (Human), UniProt Q13489); experiment: BIR binding assay (FRET competition), cIAP2 BIR3; conditions: for cIAP2 BIR3 vs BIR2 separation window: fold separation (FS) for cIAP2
[5] = target: cIAP2-BIR2 (Homo sapiens (Human), UniProt Q13489); experiment: BIR binding assay (FRET competition), cIAP2 BIR2
In short: as §1

[6] = target: XIAP-BIR3 (Homo sapiens (Human), UniProt P98170); experiment: BIR binding assay (FRET competition), XIAP BIR3; conditions: for XIAP BIR3 vs BIR2 separation window: fold separation (FS) for XIAP
In short: as §1

[7] = target: XIAP-BIR2 (Homo sapiens (Human), UniProt P98170); experiment: BIR binding assay (FRET competition), XIAP BIR2; conditions: FRET competition binding; read-out: XIAP BIR2 (pIC50) (converted)
In short: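 Competitive TR-FRET used His-tagged XIAP-BIR2 (200 nM) and 200 nM AlexaFluor647-labelled AVPIAQKSE SMAC peptide in HEPES buffer pH 7.4 with CHAPS, glycerol and DTT, incubated 60 min before 30 min with 2 nM Eu-W1024. The 615/665 nm ratio from a 15-point, 3-fold series was fit with a four-parameter model for IC50/pIC50.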

Sequence of XIAP-BIR3 (P98170 241-356): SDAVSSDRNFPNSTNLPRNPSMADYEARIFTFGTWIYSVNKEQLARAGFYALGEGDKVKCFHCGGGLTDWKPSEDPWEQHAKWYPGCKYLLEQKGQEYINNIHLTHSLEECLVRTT
Sequence of XIAP-BIR2 (P98170 124-240): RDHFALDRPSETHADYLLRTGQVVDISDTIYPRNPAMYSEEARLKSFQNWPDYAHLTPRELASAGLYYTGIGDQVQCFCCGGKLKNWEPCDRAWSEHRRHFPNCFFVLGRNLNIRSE
Sequence of cIAP1-BIR3 (Q13490 253-363): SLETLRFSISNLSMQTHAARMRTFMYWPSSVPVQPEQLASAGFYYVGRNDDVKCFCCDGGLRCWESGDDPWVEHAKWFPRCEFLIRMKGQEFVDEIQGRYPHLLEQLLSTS
Sequence of cIAP1-BIR2 (Q13490 173-257): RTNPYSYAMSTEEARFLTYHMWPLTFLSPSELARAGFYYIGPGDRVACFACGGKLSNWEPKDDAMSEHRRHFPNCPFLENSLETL
Sequence of cIAP2-BIR3 (Q13489 238-349): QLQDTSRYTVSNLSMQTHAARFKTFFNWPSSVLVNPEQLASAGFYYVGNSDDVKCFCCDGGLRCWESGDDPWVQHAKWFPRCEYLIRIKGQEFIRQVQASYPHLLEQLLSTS
Sequence of cIAP2-BIR2 (Q13489 158-242): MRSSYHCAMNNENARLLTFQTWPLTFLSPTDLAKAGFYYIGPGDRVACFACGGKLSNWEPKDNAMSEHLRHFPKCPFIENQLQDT

SMILES | EC50 [1] [nM] | IC50 [2] [nM] | cIAP1 BIR3 vs BIR2 separation window [2] | IC50 [3] [nM] | IC50 [4] [nM] | cIAP2 BIR3 vs BIR2 separation window [4] | IC50 [5] [nM] | IC50 [6] [nM] | XIAP BIR3 vs BIR2 separation window [6] | IC50 [7] [nM]
C[C@@H]1CN(CC(=O)N2CC(C)(C)c3[nH]c(=O)c(Cc4ccc(F)cc4)cc32)[C@@H](CN2CCO[C@H](COCc3cccc(COC[C@@H]4CN(C[C@H]5CN[C@H](C)CN5CC(=O)N5CC(C)(C)c6[nH]c(=O)c(Cc7ccc(F)cc7)cc65)CCO4)n3)C2)CN1 [Example 84, 1,1′-(2,2′-((3R,3′R,6R,6′R)-(((2S,2'S)-(((pyridine-2,6-diylbis(methylene))bis(oxy))bis(methylene))bis(morpholine-2,4-diyl))bis(methylene))bis(3-methylpiperazine-6,1-diyl))bis(acetyl))bis(6-(4-fluorobenzyl)-3,3-dimethyl-1,2,3,4-tetrahydro-5H-pyrrolo[3,2-b]pyridin-5-one)] | 0.49 to 12.6 | 7.94 to 15.8 | +++ (10,000>FS>1,000) | 1000 to 3160 | 7.94 to 15.8 | +++ (10,000>FS>1,000) | 3160 to 10000 | 15.8 to 31.6 | ++++ (FS>10,000) | 10000 to 51300
C[C@@H]1CN(CC(=O)N2CC(C)(C)c3[nH]c(=O)c(Cc4ccc(F)cc4)cc32)[C@@H](CN2CCO[C@H](COCc3c(F)c(F)c(COC[C@@H]4CN(C[C@H]5CN[C@H](C)CN5CC(=O)N5CC(C)(C)c6[nH]c(=O)c(Cc7ccc(F)cc7)cc65)CCO4)c(F)c3F)C2)CN1 [Example 85, 1,1′-(2,2′-((3R,3′R,6R,6′R)-(((2S,2'S)-((((perfluoro-1,4-phenylene)bis(methylene))bis(oxy))bis(methylene))bis(morpholine-2,4-diyl))bis(methylene))bis(3-methylpiperazine-6,1-diyl))bis(acetyl))bis(6-(4-fluorobenzyl)-3,3-dimethyl-1,2,3,4-tetrahydro-5H-pyrrolo[3,2-b]pyridin-5-one)] | 0.49 to 12.6 | 7.94 to 15.8 | +++ (10,000>FS>1,000) | 3160 to 10000 | 15.8 to 31.6 | +++ (10,000>FS>1,000) | 3160 to 10000 | 31.6 to 501 | ++++ (FS>10,000) | 10000 to 51300
C[C@@H]1CN(CC(=O)N2CC(C)(C)c3[nH]c(=O)c(Cc4ccc(F)cc4)cc32)[C@@H](CN2CCO[C@H](COc3cccc(OC[C@@H]4CN(C[C@H]5CN[C@H](C)CN5CC(=O)N5CC(C)(C)c6[nH]c(=O)c(Cc7ccc(F)cc7)cc65)CCO4)c3Br)C2)CN1 [Example 87, 1,1′-(2,2′-((3R,3′R,6R,6′R)-(((2S,2'S)-(((2-bromo-1,3-phenylene)bis(oxy))bis(methylene))bis(morpholine-2,4-diyl))bis(methylene))bis(3-methylpiperazine-6,1-diyl))bis(acetyl))bis(6-(4-fluorobenzyl)-3,3-dimethyl-1,2,3,4-tetrahydro-5H-pyrrolo[3,2-b]pyridin-5-one)] | 0.49 to 12.6 | 7.94 to 15.8 | +++ (10,000>FS>1,000) | 1000 to 3160 | 7.94 to 15.8 | +++ (10,000>FS>1,000) | 3160 to 10000 | 7.94 to 15.8 | ++++ (FS>10,000) | 10000 to 51300
C[C@@H]1CN(CC(=O)N2CC(C)(C)c3[nH]c(=O)c(Cc4ccc(F)cc4)cc32)[C@@H](CN2CCO[C@H](COc3cccc(OC[C@@H]4CN(C[C@H]5CN[C@H](C)CN5CC(=O)N5CC(C)(C)c6[nH]c(=O)c(Cc7ccc(F)cc7)cc65)CCO4)c3Cl)C2)CN1 [Example 88, 1,1′-(2,2′-((3R,3′R,6R,6′R)-(((2S,2'S)-(((2-chloro-1,3-phenylene)bis(oxy))bis(methylene))bis(morpholine-2,4-diyl))bis(methylene))bis(3-methylpiperazine-6,1-diyl))bis(acetyl))bis(6-(4-fluorobenzyl)-3,3-dimethyl-1,2,3,4-tetrahydro-5H-pyrrolo[3,2-b]pyridin-5-one)] | 0.49 to 12.6 | 7.94 to 15.8 | +++ (10,000>FS>1,000) | 1000 to 3160 | 7.94 to 15.8 | +++ (10,000>FS>1,000) | 1000 to 3160 | 7.94 to 15.8 | ++++ (FS>10,000) | 10000 to 51300
C[C@@H]1CN(CC(=O)N2CC(C)(C)c3[nH]c(=O)c(Cc4ccc(F)cc4)cc32)[C@@H](CN2CCO[C@H](C(=O)N[C@H]3CC[C@H](NC(=O)[C@@H]4CN(C[C@H]5CN[C@H](C)CN5CC(=O)N5CC(C)(C)c6[nH]c(=O)c(Cc7ccc(F)cc7)cc65)CCO4)CC3)C2)CN1 [Example 92, (2S,2'S)-N,N′-((1S,4S)-cyclohexane-1,4-diyl)bis(4-(((2R,5R)-1-(2-(6-(4-fluorobenzyl)-3,3-dimethyl-5-oxo-2,3,4,5-tetrahydro-1H-pyrrolo[3,2-b]pyridin-1-yl)-2-oxoethyl)-5-methylpiperazin-2-yl)methyl)morpholine-2-carboxamide)] | 12.6 to 63.1 | 1.38 to 7.94 | +++ (10,000>FS>1,000) | 1000 to 3160 | 7.94 to 15.8 | +++ (10,000>FS>1,000) | 1000 to 3160 | 7.94 to 15.8 | ++++ (FS>10,000) | 10000 to 51300
C[C@@H]1CN(CC(=O)N2CC(C)(C)c3[nH]c(=O)c(Cc4ccc(F)cc4)cc32)[C@@H](CN2CCO[C@H](C(=O)NCC#CC#CCNC(=O)[C@@H]3CN(C[C@H]4CN[C@H](C)CN4CC(=O)N4CC(C)(C)c5[nH]c(=O)c(Cc6ccc(F)cc6)cc54)CCO3)C2)CN1 [Example 93, (2S,2'S)-N,N′-(hexa-2,4-diyne-1,6-diyl)bis(4-(((2R,5R)-1-(2-(6-(4-fluorobenzyl)-3,3-dimethyl-5-oxo-2,3,4,5-tetrahydro-1H-pyrrolo[3,2-b]pyridin-1-yl)-2-oxoethyl)-5-methylpiperazin-2-yl)methyl)morpholine-2-carboxamide)] | 12.6 to 63.1 | 7.94 to 15.8 | ++ (1,000>FS>100) | 22.4 to 1000 | 7.94 to 15.8 | +++ (10,000>FS>1,000) | 1000 to 3160 | 31.6 to 501 | ++++ (FS>10,000) | 10000 to 51300
C[C@@H]1CN(CC(=O)N2CC(C)(C)c3[nH]c(=O)c(Cc4ccc(F)cc4)cc32)[C@@H](CN2CCC(CN(C)C(=O)c3cccc(C(=O)N(C)CC4CCN(C[C@H]5CN[C@H](C)CN5CC(=O)N5CC(C)(C)c6[nH]c(=O)c(Cc7ccc(F)cc7)cc65)CC4)c3)CC2)CN1 [Example 95, N^1,N^3-bis((1-(((2R,5R)-1-(2-(6-(4-fluorobenzyl)-3,3-dimethyl-5-oxo-2,3,4,5-tetrahydro-1H-pyrrolo[3,2-b]pyridin-1-yl)-2-oxoethyl)-5-methylpiperazin-2-yl)methyl)piperidin-4-yl)methyl)-N^1,N^3-dimethylisophthalamide] | 63.1 to 316 | 31.6 to 501 | ++ (1,000>FS>100) | 1000 to 3160 | 1.38 to 7.94 | +++ (10,000>FS>1,000) | 1000 to 3160 | 7.94 to 15.8 | ++++ (FS>10,000) | 10000 to 51300
C[C@@H]1CN(CC(=O)N2CC(C)(C)c3[nH]c(=O)c(Cc4ccc(F)cc4)cc32)[C@@H](CN2CCC(CN(C)C(=O)c3ccc(C(=O)N(C)CC4CCN(C[C@H]5CN[C@H](C)CN5CC(=O)N5CC(C)(C)c6[nH]c(=O)c(Cc7ccc(F)cc7)cc65)CC4)cc3)CC2)CN1 [Example 96, N^1,N^4-bis((1-(((2R,5R)-1-(2-(6-(4-fluorobenzyl)-3,3-dimethyl-5-oxo-2,3,4,5-tetrahydro-1H-pyrrolo[3,2-b]pyridin-1-yl)-2-oxoethyl)-5-methylpiperazin-2-yl)methyl)piperidin-4-yl)methyl)-N^1,N^4-dimethylterephthalamide] | 63.1 to 316 | 1.38 to 7.94 | +++ (10,000>FS>1,000) | 1000 to 3160 | 7.94 to 15.8 | +++ (10,000>FS>1,000) | 1000 to 3160 | 7.94 to 15.8 | ++++ (FS>10,000) | 10000 to 51300

Source: patent US20250326771A1, “PIPERAZINE DERIVATIVES USEFUL IN HIV THERAPY” (VIIV HEALTHCARE COMPANY, priority 2022, published 2025)
